# What was measured:
# [1] = biological target: T1, Recombinant human TREM2 (Homo sapiens, UniProt Q9NZC2); test: microscale thermophoresis; assay type: binding
# T1 sequence (Q9NZC2 19-174 limits assumed): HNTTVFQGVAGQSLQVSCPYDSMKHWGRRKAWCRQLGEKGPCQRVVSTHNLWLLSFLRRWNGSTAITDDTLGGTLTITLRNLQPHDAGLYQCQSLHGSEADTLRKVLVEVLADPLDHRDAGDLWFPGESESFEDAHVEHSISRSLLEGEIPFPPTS
# [2] = biological target: hERG (Homo sapiens, UniProt Q12809, species not given); test: hERG inhibition; assay type: cell-based
# Sequence of hERG (Q12809 whole entry): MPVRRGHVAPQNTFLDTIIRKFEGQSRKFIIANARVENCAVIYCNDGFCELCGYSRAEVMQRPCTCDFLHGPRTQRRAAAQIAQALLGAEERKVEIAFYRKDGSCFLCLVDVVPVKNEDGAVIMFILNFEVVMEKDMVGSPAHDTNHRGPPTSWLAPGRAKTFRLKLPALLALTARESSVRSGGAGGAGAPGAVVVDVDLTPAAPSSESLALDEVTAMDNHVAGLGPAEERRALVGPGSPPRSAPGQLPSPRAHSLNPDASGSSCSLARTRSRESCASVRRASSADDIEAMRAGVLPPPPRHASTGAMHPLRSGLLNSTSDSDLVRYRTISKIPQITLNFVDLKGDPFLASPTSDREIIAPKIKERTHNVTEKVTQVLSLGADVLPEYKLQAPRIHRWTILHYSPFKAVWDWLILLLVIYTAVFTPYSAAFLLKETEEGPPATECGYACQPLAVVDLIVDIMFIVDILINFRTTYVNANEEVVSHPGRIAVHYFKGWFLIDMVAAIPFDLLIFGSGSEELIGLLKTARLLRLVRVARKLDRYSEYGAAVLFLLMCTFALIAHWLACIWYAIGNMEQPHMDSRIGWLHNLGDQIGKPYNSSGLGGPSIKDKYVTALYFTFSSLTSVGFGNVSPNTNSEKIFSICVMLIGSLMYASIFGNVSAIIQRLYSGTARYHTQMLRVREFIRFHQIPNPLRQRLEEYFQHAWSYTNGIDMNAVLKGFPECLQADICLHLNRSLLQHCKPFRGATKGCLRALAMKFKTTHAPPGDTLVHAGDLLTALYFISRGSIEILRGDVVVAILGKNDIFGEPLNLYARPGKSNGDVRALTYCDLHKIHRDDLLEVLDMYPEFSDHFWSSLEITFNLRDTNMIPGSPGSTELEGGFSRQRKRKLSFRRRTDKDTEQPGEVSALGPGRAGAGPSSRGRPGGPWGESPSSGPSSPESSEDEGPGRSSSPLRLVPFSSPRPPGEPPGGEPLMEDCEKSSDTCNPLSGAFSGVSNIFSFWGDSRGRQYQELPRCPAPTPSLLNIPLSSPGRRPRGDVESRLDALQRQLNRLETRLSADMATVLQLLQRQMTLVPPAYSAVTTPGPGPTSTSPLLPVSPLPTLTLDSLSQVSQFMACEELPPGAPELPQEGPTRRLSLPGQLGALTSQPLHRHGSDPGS
Kd [1],SMILES,IC50 [2]
71.4 ± 4.06 µM,Cc1nc2cc(C3=CC(c4cnn(C)c4)OCC3)nc(-c3ccc(Cl)cc3F)c2nc1C (stereo not drawn) [C1],> 100 µM
–,Cc1nc2cc([C@H]3CCO[C@@H](c4cnn(C)c4)C3)nc(-c3ccc(Cl)cc3F)c2nc1C [VG-3927],> 100 µM

# Reference: doi:10.1101/2025.06.22.660908v1 (biorxiv, 2025)
